In patent US9862792B2, “Diblock copolymers and polynucleotide complexes thereof for delivery into cells” (University of Washington, priority 2008, dated 2018):

How the values were obtained:
[1] = tested on: caspase 3/7; test: Caspase 3/7 activity assay in HeLas; assay type: cell-based, human; conditions: HeLa, 30 minutes, 25 μM peptide or equivalent polymer; relative to no treatment
Method: Caspase 3/7 Activity Assay. Caspase 3/7 activation was measured using a commercially available assay kit. This assay utilizes a profluorescent caspase 3/7 substrate that once enzymatically cleaved becomes fluorescent allowing for determination of relative enzyme activity using a fluorescent plate reader. Here, HeLas were incubated for 30 minutes with 25 μM peptide (alone or as polymer conjugate) in addition to polymer alone in a quantity equivalent to the conjugate samples. Afterwards, a caspase 3/7 fluorigenic indicator was added directly to the culture media for each sample. Plates were shaken for 1 hour and then assayed using a fluorescent plate reader. Data were expressed as percent caspase activity relative to samples receiving no treatment.

[2] = tested on: mitochondrial membrane potential in HeLas; test: Flow cytometry of mitochondrial membrane potential (JC-1 dye); assay type: cell-based, human; conditions: HeLa, 2 hours, 10 μM peptide or equivalent conjugate or polymer alone; versus no treatment
Method: Flow Cytometry Evaluation of Mitochondrial Membrane Potential. Loss of mitochondrial membrane potential, a known indicator for apoptosis, was assessed using the JC-1 dye. […] HeLas were incubated for 2 hours with 10 μM peptide or equivalent conjugate or polymer alone. JC-1 was added at a final concentration of 5 μg/mL and incubated for 15 minutes. Cells were washed 2 times with PBS, trypsinized, and resuspended in 0.5% BSA for flow cytometric analysis. Percent of cells displaying mitochondrial depolarization was quantified based on the number of green fluorescent cells that were negative for red fluorescence. Here, a significant loss of red fluorescent JC-1 aggregates and therefore a loss in mitochondrial polarization was detected following treatment with both the Antp-BH3 peptide and the polymer peptide conjugate (FIG. 21 A).

- caspase 3/7 activation [1]: approximately 2.5 fold
Substance: NH2-RQIKIWFQNRRMKWKKMGQVGRQLAIIGDDINRRYDSC-COOH (H-RQIKIWFQNRRMKWKKMGQVGRQLAIIGDDINRRYDSC-OH) [Antp-BH3]
- increase in percent of cells exhibiting loss of mitochondrial polarity [2]: approximately 4 fold
